Here are results for five compounds from patent US8765727B2, “Macrocyclic compounds and their use as kinase inhibitors” (Incyte Corporation, priority 2009, dated 2014).

What all share (type): biochemical
Experiment [1] concerns the target human JAK3 (a.a. 781-1124) catalytic domain (Homo sapiens (Human), UniProt P52333). As to the kind of experiment: In vitro JAK kinase assay (HTRF), JAK3. Particulars: 3 μM ATP, 500 nM peptide, room temperature 1 hr. As to the method: (§1) One or more compounds herein were tested for inhibitory activity of JAK targets according to the following in vitro assay described in Park et al., Analytical Biochemistry 1999, 269, 94-104. The catalytic domains of human JAK1 (a.a. 837-1142), JAK2 (a.a. 828-1132) and JAK3 (a.a. 781-1124) with an N-terminal His tag were expressed using baculovirus in insect cells and purified. The catalytic activity of JAK1, JAK2 or JAK3 was assayed by measuring the phosphorylation of a biotinylated peptide. The phosphorylated peptide was detected by homogenous time resolved fluorescence (HTRF). […] The ATP concentration in the reactions was 90 μM for JAK1, 30 μM for JAK2 and 3 μM for JAK3. Reactions were carried out at room temperature for 1 hr and then stopped with 20 μL 45 mM EDTA, 300 nM SA-APC, 6 nM Eu-Py20 in assay buffer (Perkin Elmer, Boston, Mass.). Binding to the Europium labeled antibody took place for 40 minutes and HTRF signal was measured on a Fusion plate reader (Perkin Elmer, Boston, Mass.).

A further experiment has as its target TYK2 (Homo sapiens (Human), UniProt P29597). As to the kind of experiment: TYK2 assay (as described by Thompson et al.). The source says: The invention will be described in greater detail by way of specific examples. The following examples are offered for illustrative purposes, and are not intended to limit the invention in any manner. Those of skill in the art will readily recognize a variety of non-critical parameters which can be changed or modified to yield essentially the same results. In some instances where the compounds of the examples were isolated by preparative HPLC in the presence of trifluoroacetic acid (TFA) or other acid, the compound may have been obtained as the corresponding salt. […] Certain compounds described in Tables 1 and in the Example section were tested for inhibitory activity of JAK/ALK targets according to assays such as those described herein or those known in the art [e.g., ALK assays described in WO 04/079326; and TYK2 assays described by James E. Thompson et. al, “Photochemical preparation of a pyridone containing tetracycle: A JAK protein kinase inhibitor,” Bioorganic & Medicinal Chemistry Letters, Volume 12, Issue 8, 22 Apr. 2002, Pages 1219-1223]. […] Some exemplary data of the compounds of the invention are shown in Table 1 in the experimental section.

For experiment [2], the target named is Recombinant Human Anaplastic Lymphoma Kinase (Homo sapiens (Human), UniProt Q9UM73). As to the kind of experiment: ALK HTRF kinase assay. The settings on record: 90 μM ATP, 0.25 nM enzyme, 2 hours at 25° C. As to the method: Materials: Recombinant Human Anaplastic Lymphoma Kinase was purchased from Invitrogen, Carlsbad, Calif. Peptide substrate (Biotin-[…]-amide) was custom synthesized at EZBiolab, Westfield, Ind. Streptavidin conjugated SureLight-Allophycocyania and LANCE Eu-W1024 labeled anti-phosphotyrosine antibody were from Perkin-Elmer, Boston, Mass. Microplates were from Corning Inc., Acton, Mass. All other reagents were from Sigma, St. Louis, Mo.
HTRF kinase assay: 40 μL reactions were run in black 384 well polystyrene plates in assay buffer (50 mM Tris, pH 7.8, 100 mM NaCI, 0.1 mg/mL BSA, 5 mM DTT), containing 0.5 μM Biotinylated peptide substrate, 10 mM MgCl2, 90 μM ATP, and 0.25 nM enzyme for 2 hours at 25° C. Reactions were stopped by addition of 20 μL assay buffer supplemented with an additional 50 mM NaCl, 0.4 mg/mL BSA, 45 mM EDTA, 4.5 nM LANCE Eu-W1024 labeled anti-phosphotyrosine antibody and 200 nM streptavidin conjugated SureLight-allophycocyanin. Plates were read in Fusion α-FP instrument (Perkin-Elmer). The concentrations needed to reach 50% inhibition, the IC50 value, were determined by fitting the assay signal to the following equation using Graphpad Prizm. Signal=Bottom+(Top−Bottom)/(1+10^((Log(IC50)−Log [I])*Hill Slope) Bottom and Top refer to the post and pre-transition baselines, respectively.

The target of experiment [3] is human JAK1 (a.a. 837-1142) catalytic domain (Homo sapiens, UniProt P23458). The experiment is described as follows: In vitro JAK kinase assay (HTRF), JAK1. The settings on record: 90 μM ATP, 500 nM peptide, room temperature 1 hr. As to the method:
as §1

Experiment [4] has as its target human JAK2 (a.a. 828-1132) catalytic domain (Homo sapiens (Human), UniProt O60674). As to the kind of experiment: In vitro JAK kinase assay (HTRF), JAK2. As to the method:
One or more compounds herein were tested for inhibitory activity of JAK targets according to the following in vitro assay described in Park et al., Analytical Biochemistry 1999, 269, 94-104. The catalytic domains of human JAK1 (a.a. 837-1142), JAK2 (a.a. 828-1132) and JAK3 (a.a. 781-1124) with an N-terminal His tag were expressed using baculovirus in insect cells and purified. The catalytic activity of JAK1, JAK2 or JAK3 was assayed by measuring the phosphorylation of a biotinylated peptide. The phosphorylated peptide was detected by homogenous time resolved fluorescence (HTRF). […] Binding to the Europium labeled antibody took place for 40 minutes and HTRF signal was measured on a Fusion plate reader (Perkin Elmer, Boston, Mass.).

Where [5] appears, read: 30 μM ATP, 500 nM peptide, room temperature 1 hr.

Where a name gives a salt, the structure may show the parent alone. Read-outs that look alike come from different tables or passages of the source.

human JAK2 (a.a. 828-1132) catalytic domain, sequence (O60674 828-1132): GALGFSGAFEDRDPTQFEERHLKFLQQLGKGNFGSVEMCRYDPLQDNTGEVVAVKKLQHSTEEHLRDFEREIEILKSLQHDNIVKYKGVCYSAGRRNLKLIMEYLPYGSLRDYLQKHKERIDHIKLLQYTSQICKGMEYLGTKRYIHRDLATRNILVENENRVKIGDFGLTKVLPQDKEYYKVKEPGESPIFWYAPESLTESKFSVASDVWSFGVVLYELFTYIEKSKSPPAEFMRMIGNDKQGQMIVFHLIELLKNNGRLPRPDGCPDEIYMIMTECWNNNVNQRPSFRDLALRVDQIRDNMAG
Recombinant Human Anaplastic Lymphoma Kinase, sequence (Q9UM73 19-1620): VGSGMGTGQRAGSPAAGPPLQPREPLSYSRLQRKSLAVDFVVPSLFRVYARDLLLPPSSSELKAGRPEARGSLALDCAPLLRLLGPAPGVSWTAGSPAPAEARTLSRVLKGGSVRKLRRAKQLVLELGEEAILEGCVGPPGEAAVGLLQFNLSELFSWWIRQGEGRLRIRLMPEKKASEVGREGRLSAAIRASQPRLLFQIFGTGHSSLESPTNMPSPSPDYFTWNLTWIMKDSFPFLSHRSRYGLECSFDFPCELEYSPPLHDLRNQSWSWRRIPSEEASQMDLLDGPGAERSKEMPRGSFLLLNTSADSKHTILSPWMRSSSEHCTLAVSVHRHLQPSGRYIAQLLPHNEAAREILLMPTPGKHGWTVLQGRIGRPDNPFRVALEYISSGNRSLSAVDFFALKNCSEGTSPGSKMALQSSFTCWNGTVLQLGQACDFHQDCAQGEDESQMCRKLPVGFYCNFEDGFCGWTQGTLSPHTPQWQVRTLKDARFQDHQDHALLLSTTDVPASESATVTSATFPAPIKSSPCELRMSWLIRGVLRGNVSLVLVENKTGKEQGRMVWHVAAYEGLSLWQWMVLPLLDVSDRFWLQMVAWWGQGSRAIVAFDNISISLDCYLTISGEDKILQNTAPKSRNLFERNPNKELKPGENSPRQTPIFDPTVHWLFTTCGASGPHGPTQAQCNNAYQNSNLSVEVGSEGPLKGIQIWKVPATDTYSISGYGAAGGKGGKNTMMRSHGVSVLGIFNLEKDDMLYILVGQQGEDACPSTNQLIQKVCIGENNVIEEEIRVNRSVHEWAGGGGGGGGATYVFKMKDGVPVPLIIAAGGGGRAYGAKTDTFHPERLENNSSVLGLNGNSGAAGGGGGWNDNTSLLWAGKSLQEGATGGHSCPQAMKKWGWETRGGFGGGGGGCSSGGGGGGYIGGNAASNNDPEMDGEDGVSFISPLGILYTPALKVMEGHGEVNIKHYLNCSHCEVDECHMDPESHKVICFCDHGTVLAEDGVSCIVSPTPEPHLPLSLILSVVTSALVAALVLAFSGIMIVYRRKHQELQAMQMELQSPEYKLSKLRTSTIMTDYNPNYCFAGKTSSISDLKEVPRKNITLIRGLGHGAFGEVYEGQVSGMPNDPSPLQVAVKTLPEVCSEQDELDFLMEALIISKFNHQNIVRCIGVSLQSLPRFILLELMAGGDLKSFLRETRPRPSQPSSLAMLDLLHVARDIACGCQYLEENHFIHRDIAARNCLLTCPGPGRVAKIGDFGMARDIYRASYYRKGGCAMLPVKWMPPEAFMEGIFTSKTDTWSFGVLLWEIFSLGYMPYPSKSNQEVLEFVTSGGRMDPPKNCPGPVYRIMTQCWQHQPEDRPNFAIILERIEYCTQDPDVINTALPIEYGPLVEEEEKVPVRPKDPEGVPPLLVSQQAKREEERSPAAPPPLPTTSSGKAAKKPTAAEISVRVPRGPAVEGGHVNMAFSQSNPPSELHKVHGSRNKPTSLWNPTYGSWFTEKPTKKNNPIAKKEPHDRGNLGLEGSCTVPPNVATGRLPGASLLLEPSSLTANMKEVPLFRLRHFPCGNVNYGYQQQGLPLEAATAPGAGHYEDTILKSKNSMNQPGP
TYK2, sequence (P29597 whole entry, species assumed): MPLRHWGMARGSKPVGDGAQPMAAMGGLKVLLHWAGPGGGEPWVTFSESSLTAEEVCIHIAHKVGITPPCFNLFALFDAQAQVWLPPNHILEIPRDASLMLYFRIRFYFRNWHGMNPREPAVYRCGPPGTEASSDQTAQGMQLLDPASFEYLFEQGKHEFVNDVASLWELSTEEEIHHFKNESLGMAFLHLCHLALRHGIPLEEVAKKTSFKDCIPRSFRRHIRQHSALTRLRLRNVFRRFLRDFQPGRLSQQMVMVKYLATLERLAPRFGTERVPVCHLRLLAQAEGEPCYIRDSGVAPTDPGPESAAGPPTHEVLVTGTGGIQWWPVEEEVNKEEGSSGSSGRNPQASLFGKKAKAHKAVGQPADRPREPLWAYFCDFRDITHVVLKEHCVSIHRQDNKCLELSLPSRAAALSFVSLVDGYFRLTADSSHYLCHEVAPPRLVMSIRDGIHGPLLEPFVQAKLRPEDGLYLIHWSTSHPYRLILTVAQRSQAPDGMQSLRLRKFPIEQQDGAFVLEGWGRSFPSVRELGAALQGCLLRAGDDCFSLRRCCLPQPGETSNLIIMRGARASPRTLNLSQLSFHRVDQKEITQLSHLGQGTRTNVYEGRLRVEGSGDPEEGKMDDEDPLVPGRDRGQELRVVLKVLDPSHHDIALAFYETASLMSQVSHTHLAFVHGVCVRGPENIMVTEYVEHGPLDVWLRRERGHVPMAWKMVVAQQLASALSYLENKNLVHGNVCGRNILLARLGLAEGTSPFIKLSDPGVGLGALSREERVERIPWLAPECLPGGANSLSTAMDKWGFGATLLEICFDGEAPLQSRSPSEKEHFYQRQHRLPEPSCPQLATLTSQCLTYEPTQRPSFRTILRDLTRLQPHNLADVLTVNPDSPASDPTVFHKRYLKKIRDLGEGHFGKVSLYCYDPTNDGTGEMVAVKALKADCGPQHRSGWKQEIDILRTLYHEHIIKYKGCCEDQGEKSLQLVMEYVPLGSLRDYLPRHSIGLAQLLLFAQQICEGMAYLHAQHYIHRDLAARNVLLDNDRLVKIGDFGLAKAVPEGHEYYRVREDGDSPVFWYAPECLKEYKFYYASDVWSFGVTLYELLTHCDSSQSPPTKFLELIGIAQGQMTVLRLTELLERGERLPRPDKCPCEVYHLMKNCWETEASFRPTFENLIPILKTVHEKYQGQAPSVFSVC
human JAK3 (a.a. 781-1124) catalytic domain, sequence (P52333 781-1124): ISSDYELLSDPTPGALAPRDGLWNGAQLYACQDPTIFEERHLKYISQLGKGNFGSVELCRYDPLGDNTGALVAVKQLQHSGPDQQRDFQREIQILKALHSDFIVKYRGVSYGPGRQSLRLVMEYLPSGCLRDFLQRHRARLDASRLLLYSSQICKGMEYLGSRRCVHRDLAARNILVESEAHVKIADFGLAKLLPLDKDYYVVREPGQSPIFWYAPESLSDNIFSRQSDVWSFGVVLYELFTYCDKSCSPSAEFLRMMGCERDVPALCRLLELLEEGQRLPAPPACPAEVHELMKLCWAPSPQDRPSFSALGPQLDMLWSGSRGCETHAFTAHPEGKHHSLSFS

On to `Clc1cnc2nc1NCc1cc(ccc1Br)OCCCc1cccc(c1)N2` [Example 14, 11-Bromo-6-chloro-15-oxa-2,4,8,25-tetraazatetracyclo[17.3.1.1(3,7).1(10,14)]pentacosa-1(23),3(25),4,6,10(24),11,13,19,21-nonaene], for which the IC50 was 57 nM in experiment [1]; 300 nM at TYK2; 8200 nM in experiment [2]; 100 nM in experiment [3]; 91 nM in experiment [4] (setting [5]).

Consider `Clc1cnc2nc1NCc1cccc(c1)OCc1cccc(c1)N2` [Example 1, 6-Chloro-15-oxa-2,4,8,23-tetraazatetracyclo[15.3.1.1(3,7).1(10,14)]tricosa-1(21),3(23),4,6,10(22),11,13,17,19-nonaene trifluoroacetate], for which the IC50 in experiment [1] was 17 nM; against TYK2 it was 400 nM; in experiment [2], over 1000 nM; in experiment [3] it was 51 nM; in experiment [4], 49 nM.

On to `Clc1cnc2nc1NCc1cccc(c1)OCCCc1cccc(c1)N2` [Example 5, 6-Chloro-15-oxa-2,4,8,25-tetraazatetracyclo[17.3.1.1(3,7).1(10,14)]pentacosa-1(23),3(25),4,6,10(24),11,13,19,21-nonaene trifluoroacetate], for which the IC50 in experiment [1] was 2.4 nM; at TYK2, 25 nM; in experiment [2], 706 nM; in experiment [3] it was 4.2 nM; in experiment [4], 1.9 nM.

In the case of `O=C(Nc1ccc2cc1CCc1cncc(c1)Nc1ncc(Cl)c(n1)NC2)c1ccccc1` [Example 18, N-[6-Chloro-2,4,8,19,23-pentaazatetracyclo[15.3.1.1(3,7).1(10,14)]tricosa-1(21),3(23),4,6,10(22),11,13,17,19-nonaen-13-yl]benzamide bis(trifluoroacetate)], the IC50 (in experiment [1]; at TYK2; in experiment [2]; in experiment [3]; in experiment [4] (setting [5])) was over 1000 nM each time.

With `Clc1cnc2nc1NCc1cccc(c1)OCCc1cccc(c1)N2` [Example 2, 6-Chloro-15-oxa-2,4,8,24-tetraazatetracyclo[16.3.1.1(3,7).1(10,14)]tetracosa-1(22),3(24),4,6,10(23),11,13,18,20-nonaene trifluoroacetate], the IC50 in experiment [1] stood at 9.2 nM; on TYK2, 35 nM; in experiment [2], 1530 nM; in experiment [3], 13 nM; in experiment [4] (setting [5]), 10 nM.
